From patent publication US9139525B2, “N-oxide and/or di-N-oxide derivatives of dopamine receptor stabilizers/modulators displaying improved cardiovascular side-effects profiles” (TEVA PHARMACEUTICALS INTERNATIONAL GMBH, priority 2007, dated 2015)

Experiments:
[1] = tested on: dopamine, DOPAC and 5-HIAA in the striatum; test: Microdialysis in rat striatum (freely moving rats; dopamine, DOPAC and 5-HIAA by HPLC with electrochemical detection); format: in vivo
Method: Microdialysis in Rat Striatum Standard microdialysis experiments were performed on-line in freely moving rats. The striatum was perfused with a Ringer solution and dopamine, DOPAC and 5-HIAA were quantified by HPLC with electrochemical detection.

[2] = after S-3-OTf-3-PPP-N-ox (13) 100 μmol/kg p.o.; between 0 h and 6 h; sampled every 1 h
Method: 3-OTf-3-PPP-N-ox was measured at Rt=11.68 min with a +MRM of 368/235. Precursor 3-OTf-3-PPP was measured at Rt=11.50 min with a +MRM of 352/219.

[3] = oral administration, 91 μmol/kg

CCCN1CCC[C@@H](c2cccc(OS(=O)(=O)C(F)(F)F)c2)C1 [(−)-3-PPP triflate, S-3-Trifluoro-methanesulfonyloxy-(1-n-propyl-phenyl)piperidine, reference compound]
3,4-dihydroxyphenylacetic acid (DOPAC) level, maximum ([1]; 100 μmol/kg per os): about 175% | dopamine (DA) level, maximum ([1]; 100 μmol/kg per os): about 175% | level of 5-hydroxyindolacetic acid (HIAA) ([1]; 100 μmol/kg per os): around 100% | time of maximum of DA and DOPAC level ([1]; 100 μmol/kg per os): about 150 minutes | levels of dopamine and DOPAC after about 195 minutes ([1]; 100 μmol/kg per os, after about 195 minutes (3.25 hours)): decrease | dopamine level, second rise ([1]; 100 μmol/kg per os, after about 240 minutes (4 hours)): 350 % of controls | striatal concentration of the precursor after dosing of the N-oxide [2]: continuous rise

CCC[N+]1([O-])CCC(c2cccc(S(C)(=O)=O)c2)CC1 (centres unmarked) [ACR16 N-oxide, 4-(3-Methanesulfonyl-phenyl)-1-propyl-piperidine-1-oxide]
3,4-dihydroxyphenylacetic acid (DOPAC) level ([1]; 50 μmol/kg per os): slight rise | dopamine (DA) level ([1]; 50 μmol/kg per os, after about 45 minutes): considerable rise | 3,4-dihydroxyphenylacetic acid (DOPAC) level ([1]; 100 μmol/kg per os given at 180 minutes after a first 50 μmol/kg per os): goes up | level of dopamine, maximum height ([1]; 100 μmol/kg per os given at 180 minutes after a first 50 μmol/kg per os, peak after 240 minutes): more than 250 % of controls

CCC[N+]1([O-])CC=C(c2cccc(S(C)(=O)=O)c2)CC1 (centres unmarked) [ACR16-ene-N-ox, 4-(3-Methanesulfonyl-phenyl)-1-propyl-1,2,3,6-tetrahydro-pyridine-N-oxide]
DA release [1, 3]: about 300 % of controls | DOPAC release [1, 3]: about 300 % of controls | duration of the effects on DA and DOPAC release [1, 3]: > 4 h

CCC[N+]1([O-])CCCC(c2cccc(OS(=O)(=O)C(F)(F)F)c2)C1 (centres unmarked) [S-3-PPP triflate-N-oxide, S-Trifluoromethanesulfonic acid 3-(1-propyl-piperidin-3-yl)-phenyl ester-1-oxide]
3,4-dihydroxyphenylacetic acid (DOPAC) level, maximum ([1]; 100 μmol/kg per os): ~150% | dopamine (DA) level, maximum ([1]; 100 μmol/kg per os): about 230% | level of 5-hydroxyindolacetic acid (HIAA) ([1]; 100 μmol/kg per os): around 100% | time of maximum of DA and DOPAC level ([1]; 100 μmol/kg per os): about 120 minutes | course of DA and DOPAC levels after the maximum ([1]; 100 μmol/kg per os, whole experiment (6 h)): constant over the whole experiment | pharmacological effect and duration of action ([1]; microdialysis in rat striatum): pronounced pharmacological effect with a very long duration of action
